Assays:
Format in all cases: cell-based
human Nav1.5 [1] = target: T1, human Nav1.5 (Homo sapiens (Human), UniProt Q14524); experiment: Qpatch automated patch-clamp, peak Nav1.5 current inhibition, 5-Hz AF-like assay (holding potential -85 mV); conditions: CHO-K1 cells stably expressing human Nav1.5, holding potential -85 mV, Table 5, read-out: Nav1.5 IC50 (5 Hz, AF Rate)
Excerpt: (§1) Electrophysiology was used to measure the ionic currents in isolated living cells using automated patch-clamp recording, performed using an automated patch-clamp machine called Qpatch (Sophion Bioscience). Two different assay conditions were used to identify compounds with atrial-selective potential. The 5-Hz AF-like assay has more depolarized holding potential at −85 mV to mimic atrial resting membrane potential (RMP) and was used to identify compounds of strong rate-dependence. Active, rate-dependent compounds were then screened at 1 Hz (i.e., sinus rate) at the holding potential of −100 mV to mimic the ventricular scenario and help identify compounds with the largest potency separation or attenuation from the 5-Hz AF-like assay. Such compounds have the potential for treating AF without the QRS liability inherent to Class Ic drugs.
(§2) The sodium current conducted through a cell (via Nav1.5) or electrical signals were processed through a low-pass filter at 5 KHz, re-digitalized and acquired at 20 kHz. Series resistance was not compensated and leak subtraction was performed.
(§3) 1 to 3 million Chinese Hamster Ovary cells (also known as CHO-K1) stably expressing human Nav1.5 were seeded into […] culture flasks with 25 mL medium (consisting of Gibco Dulbecco's Modified Eagle Medium as a base medium with 1% MEM non-essential amino acids, 400 μg/mL Geneticin, 5 μg/mL puromycin and 10% fetal bovine serum) 48-72 hours prior to the experiments. On the day of the experiment, cells were washed once with phosphate-buffered saline (also known as PBS; Gibco) detached with Detachin™ (Genlantis), and re-suspended in CHO—S-SFM II media (Gibco) at 200,000 cells/mL. The CHO—S-SFM II was replaced with assay solutions prior to the assays. Whole-cell currents were recorded at room temperature in the whole-cell configuration. The external aqueous assay solution (pH=7.4; Osm=307-315) contained the following (the concentration for each component is expressed in parentheses in mM): NaCl (140 mM), KCl (4 mM), CaCl2) (2 mM), MgCl2 (1 mM), 4-(2-hydroxyethyl)-1-piperazineethanesulfonic acid, also known as HEPES (10 mM), and glucose (5 mM). The internal aqueous assay solution (pH=7.2; Osm=292-295) contained the following (the concentration for each component is expressed in parentheses in mM): CsF (110 mM), CsCl (10 mM), NaCl (10 mM), HEPES (10 mM), and ethylene glycolbis(β-aminoethyl ether)-N,N,N′,N′-tetraacetic acid, also known as EGTA (10 mM).
To assess peak Nav1.5 current inhibition in an atrial fibrillation-mimicking condition (Nav1.5 IC50 (5 Hz, AF-like rate) (μM)), compounds were first prepared at 10 mM in DMSO, and cells were pre-incubated with test compounds at each concentration for 3 min. in an ascending order of 0, 0.37, 1.1, 3.3, 10 and 30 μM. An atrial action potential-like protocol consisting of a voltage ramp (+10 mV to −85 mV for a 150 ms duration and a holding potential at −85 mV) was then applied to cells at 5 Hz for 12 s until no further current change or inhibition was observed. The percent inhibition (expressed as ([Iafter compound treatment/Ibefore compound treatment]×100%) is calculated by normalizing the peak current amplitude at the last pulse of each of the 6 compound concentrations by the amplitude before exposure to the test compound. The compiled data was further normalized by vehicle control (DMSO) to account for Nav1.5 current run-down, and IC50 was calculated by Matlab (MathWorks, USA).

human Nav1.5 [2] = target: T1, human Nav1.5; experiment: Qpatch automated patch-clamp, peak Nav1.5 current inhibition, 1 Hz sinus rate, ventricular condition (holding potential -100 mV); conditions: CHO-K1 cells stably expressing human Nav1.5, without ATX-II
Excerpt: as §1, §2, §3
(§4) To assess peak Nav1.5 current inhibition mimicking a ventricular condition at sinus rate with or without ATX-II (Nav1.5 IC50 (1 Hz, ATXII) (μM) or (1 Hz, Sinus Rate) (μM)), compounds were first prepared at 10 mM in DMSO, and cells were pre-incubated with test compounds at each concentration for 3 min. in an ascending order of 0, 0.37, 1.1, 3.3, 10 and 30 uM. In the assay with ATX-II (Alomone Labs), 50 nM ATX-II was included during the 3-min. compound incubation. A square pulse (−10 mV; 400 ms and a holding potential at −100 mV) was run at 1 Hz for 25 s until no further inhibition or Nav1.5 current change was observed. The percent inhibition (expressed as ([Iafter compound treatment/Ibefore compound treatment]×100%) is calculated by normalizing the peak current amplitude at the last pulse of each of the 6 compound concentrations by the amplitude before exposure to the test compound. The compiled data was further normalized by vehicle control (DMSO) to account for Nav1.5 current run-down, and IC50 was calculated by Matlab (MathWorks, USA).

human Nav1.5 [3] = target: T1, human Nav1.5; experiment: Qpatch automated patch-clamp, peak Nav1.5 current inhibition, 1 Hz with 50 nM ATX-II (holding potential -100 mV); conditions: CHO-K1 cells stably expressing human Nav1.5, read-out: Nav1.5 IC50 (1 Hz, ATXII)
Excerpt: as §1, §2, §3, §4

T1 sequence (Q14524 whole entry): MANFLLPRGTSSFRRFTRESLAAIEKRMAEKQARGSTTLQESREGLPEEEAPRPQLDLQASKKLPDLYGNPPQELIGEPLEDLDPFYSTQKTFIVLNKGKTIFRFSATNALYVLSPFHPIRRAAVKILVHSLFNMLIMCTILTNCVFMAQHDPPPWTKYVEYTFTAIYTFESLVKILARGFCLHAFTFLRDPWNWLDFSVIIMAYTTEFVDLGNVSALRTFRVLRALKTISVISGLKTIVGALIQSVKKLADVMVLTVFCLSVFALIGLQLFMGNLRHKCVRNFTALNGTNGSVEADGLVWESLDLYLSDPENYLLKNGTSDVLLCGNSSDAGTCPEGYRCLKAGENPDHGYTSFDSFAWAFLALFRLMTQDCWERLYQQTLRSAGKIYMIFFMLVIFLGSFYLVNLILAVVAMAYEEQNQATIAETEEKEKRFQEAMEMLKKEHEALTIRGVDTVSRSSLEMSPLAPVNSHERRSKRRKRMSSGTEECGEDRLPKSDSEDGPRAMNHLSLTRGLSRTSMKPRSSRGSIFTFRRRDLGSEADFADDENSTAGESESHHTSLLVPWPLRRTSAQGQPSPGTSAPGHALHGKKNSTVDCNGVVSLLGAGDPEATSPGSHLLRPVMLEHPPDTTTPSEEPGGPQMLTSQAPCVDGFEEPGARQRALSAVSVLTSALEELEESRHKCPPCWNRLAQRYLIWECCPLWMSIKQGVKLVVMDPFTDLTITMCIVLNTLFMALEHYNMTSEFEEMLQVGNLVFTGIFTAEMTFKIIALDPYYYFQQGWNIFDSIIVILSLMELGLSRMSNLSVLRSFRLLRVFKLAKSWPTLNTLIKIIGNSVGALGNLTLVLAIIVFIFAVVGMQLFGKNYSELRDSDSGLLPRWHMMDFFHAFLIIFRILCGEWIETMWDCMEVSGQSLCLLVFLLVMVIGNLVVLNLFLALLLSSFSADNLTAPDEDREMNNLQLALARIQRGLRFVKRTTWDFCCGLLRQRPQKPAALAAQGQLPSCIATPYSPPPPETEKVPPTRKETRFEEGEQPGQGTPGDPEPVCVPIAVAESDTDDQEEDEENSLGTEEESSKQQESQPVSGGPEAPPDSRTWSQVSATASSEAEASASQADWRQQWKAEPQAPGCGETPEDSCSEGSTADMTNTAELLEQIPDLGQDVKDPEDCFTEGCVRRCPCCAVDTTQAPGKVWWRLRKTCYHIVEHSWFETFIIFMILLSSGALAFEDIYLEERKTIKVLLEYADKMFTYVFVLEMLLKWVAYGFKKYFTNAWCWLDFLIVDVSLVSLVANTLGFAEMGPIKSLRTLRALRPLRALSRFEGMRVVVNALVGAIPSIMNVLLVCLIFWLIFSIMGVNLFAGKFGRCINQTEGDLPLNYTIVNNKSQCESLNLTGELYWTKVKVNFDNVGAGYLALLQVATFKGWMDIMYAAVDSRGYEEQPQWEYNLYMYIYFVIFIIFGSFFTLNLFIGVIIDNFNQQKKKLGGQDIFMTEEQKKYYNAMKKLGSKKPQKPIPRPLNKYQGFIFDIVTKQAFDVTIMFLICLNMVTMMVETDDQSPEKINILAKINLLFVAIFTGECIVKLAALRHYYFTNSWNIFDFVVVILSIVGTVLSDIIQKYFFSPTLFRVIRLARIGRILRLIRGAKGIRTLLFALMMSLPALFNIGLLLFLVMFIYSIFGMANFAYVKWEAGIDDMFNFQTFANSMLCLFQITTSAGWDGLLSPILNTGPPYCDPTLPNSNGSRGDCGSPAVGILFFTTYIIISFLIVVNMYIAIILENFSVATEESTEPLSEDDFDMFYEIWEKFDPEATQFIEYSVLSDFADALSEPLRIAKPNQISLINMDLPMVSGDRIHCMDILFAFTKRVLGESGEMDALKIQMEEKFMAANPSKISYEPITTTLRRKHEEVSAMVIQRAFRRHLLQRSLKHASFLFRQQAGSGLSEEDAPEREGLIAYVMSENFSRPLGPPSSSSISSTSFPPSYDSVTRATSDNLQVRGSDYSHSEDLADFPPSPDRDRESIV

CC(O)(CS(N)(=O)=O)c1cccc(-c2nnn(Cc3c(F)ccc4c3OC(F)(F)O4)n2)n1 (single isomer, unassigned) [Example 3, (R or S)-2-hydroxy-2-(6-(2-((2,2,5-trifluorobenzo[d][1,3]dioxol-4-yl)methyl)-2H-tetrazol-5-yl)pyridin-2-yl)propane-1-sulfonamide]
IC50 (human Nav1.5 [1]): 7.5 µM
IC50 (human Nav1.5 [2]): > 30 µM

CC(O)(CS(N)(=O)=O)c1cccc(-c2nnn(Cc3c(F)ccc4c3OC(F)(F)O4)n2)n1 (single isomer, unassigned) [Example 4, (R or S)-2-hydroxy-2-(6-(2-((2,2,5-trifluorobenzo[d][1,3]dioxol-4-yl)methyl)-2H-tetrazol-5-yl)pyridin-2-yl)propane-1-sulfonamide]
IC50 (human Nav1.5 [1]): 6.7 µM
IC50 (human Nav1.5 [2]): > 30 µM

CC(O)(CS(N)(=O)=O)c1cc(-c2nnn(Cc3cc(OC(F)(F)F)ccc3F)n2)ccc1F (single isomer, unassigned) [Example 5, (R or S)-2-(2-fluoro-5-(2-(2-fluoro-5-(trifluoromethoxy)benzyl)-2H-tetrazol-5-yl)phenyl)-2-hydroxypropane-1-sulfonamide]
IC50 (human Nav1.5 [1]): 7.9 µM
IC50 (human Nav1.5 [2]): > 30 µM

CC(O)(CS(N)(=O)=O)c1cc(-c2nnn(Cc3cc(OC(F)(F)F)ccc3F)n2)ccc1F (single isomer, unassigned) [Example 6, (R or S)-2-(2-fluoro-5-(2-(2-fluoro-5-(trifluoromethoxy)benzyl)-2H-tetrazol-5-yl)phenyl)-2-hydroxypropane-1-sulfonamide]
IC50 (human Nav1.5 [1]): 7.9 µM
IC50 (human Nav1.5 [2]): > 30 µM

CC(c1cccc(-c2nnn(Cc3cc(OC(F)(F)F)ccc3F)n2)n1)C(CO)S(N)(=O)=O (single isomer, unassigned) [Example 31, (2R or 2S, 3R or 3S)-3-(6-(2-(2-fluoro-5-(trifluoromethoxy)benzyl)-2H-tetrazol-5-yl)pyridin-2-yl)-1-hydroxybutane-2-sulfonamide]
IC50 (human Nav1.5 [1]): 1.1 µM
IC50 (human Nav1.5 [2]): 7.8 µM

CC(c1cccc(-c2nnn(Cc3cc(OC(F)(F)F)ccc3F)n2)n1)C(CO)S(N)(=O)=O (single isomer, unassigned) [Example 32, (2R or 2S,3R or 3S)-3-(6-(2-(2-fluoro-5-(trifluoromethoxy)benzyl)-2H-tetrazol-5-yl)pyridin-2-yl)-1-hydroxybutane-2-sulfonamide]
IC50 (human Nav1.5 [1]): 2.7 µM
IC50 (human Nav1.5 [2]): 28 µM

CC(c1cccc(-c2nnn(Cc3cc(OC(F)(F)F)ccc3F)n2)n1)C(CO)S(N)(=O)=O (single isomer, unassigned) [Example 33, (2R or 2S,3R or 3S)-3-(6-(2-(2-fluoro-5-(trifluoromethoxy)benzyl)-2H-tetrazol-5-yl)pyridin-2-yl)-1-hydroxybutane-2-sulfonamide]
IC50 (human Nav1.5 [1]): 1.3 µM
IC50 (human Nav1.5 [2]): 6.7 µM

CC(c1cccc(-c2nnn(Cc3cc(OC(F)(F)F)ccc3F)n2)n1)C(CO)S(N)(=O)=O (single isomer, unassigned) [Example 34, (2R or 2S, 3R or 3S)-3-(6-(2-(2-fluoro-5-(trifluoromethoxy)benzyl)-2H-tetrazol-5-yl)pyridin-2-yl)-1-hydroxybutane-2-sulfonamide]
IC50 (human Nav1.5 [1]): 2.2 µM
IC50 (human Nav1.5 [2]): > 30 µM

CC(O)(CS(N)(=O)=O)c1cccc(-c2nc(Cc3cc(OC(F)(F)F)ccc3F)no2)n1 (single isomer, unassigned) [Example 58, (R or S)-2-(6-(3-(2-fluoro-5-(trifluoromethoxy)benzyl)-1,2,4-oxadiazol-5-yl)pyridin-2-yl)-2-hydroxypropane-1-sulfonamide]
IC50 (human Nav1.5 [1]): 5 µM
IC50 (human Nav1.5 [3]): > 30 µM

CC(O)(CS(N)(=O)=O)c1cccc(-c2cn(Cc3cc(OC(F)(F)F)ccc3F)nn2)n1 (single isomer, unassigned) [Example 59, (R or S)-2-(6-(1-(2-fluoro-5-(trifluoromethoxy)benzyl)-1H-1,2,3-triazol-4-yl)pyridin-2-yl)-2-hydroxypropane-1-sulfonamide]
IC50 (human Nav1.5 [1]): 3.4 µM
IC50 (human Nav1.5 [3]): 8.6 µM

CC(O)(CS(N)(=O)=O)c1cccc(-c2cn(Cc3cc(OC(F)(F)F)ccc3F)nn2)n1 (single isomer, unassigned) [Example 60, (R or S)-2-(6-(1-(2-fluoro-5-(trifluoromethoxy)benzyl)-1H-1,2,3-triazol-4-yl)pyridin-2-yl)-2-hydroxypropane-1-sulfonamide]
IC50 (human Nav1.5 [1]): 7 µM
IC50 (human Nav1.5 [3]): 16 µM

CC(O)(CS(N)(=O)=O)c1cccc(-c2cnn(Cc3cc(OC(F)(F)F)ccc3F)n2)n1 (single isomer, unassigned) [Example 61, (R or S)-2-(6-(2-(2-fluoro-5-(trifluoromethoxy)benzyl)-2H-1,2,3-triazol-4-yl)pyridin-2-yl)-2-hydroxypropane-1-sulfonamide]
IC50 (human Nav1.5 [1]): 5 µM
IC50 (human Nav1.5 [3]): > 30 µM

CC(O)(CS(N)(=O)=O)c1cccc(-c2nnn(Cc3cc(OC(F)(F)F)ccc3F)n2)c1 (single isomer, unassigned) [Rac-25 + 26, (R or S)-2-(3-(2-(2-fluoro-5-(trifluoromethoxy)benzyl)-2H-tetrazol-5-yl)phenyl)-2-hydroxypropane-1-sulfonamide]
IC50 (human Nav1.5 [1]): 2.2 µM
IC50 (human Nav1.5 [3]): > 30 µM

CC(O)(CS(N)(=O)=O)c1cccc(-c2nnn(Cc3cc(OCC(F)(F)F)ccc3F)n2)n1 (single isomer, unassigned) [Rac-29+30, (R or S)-2-(6-(2-(2-fluoro-5-(2,2,2-trifluoroethoxy)benzyl)-2H-tetrazol-5-yl)pyridin-2-yl)-2-hydroxypropane-1-sulfonamide]
IC50 (human Nav1.5 [1]): 2.5 µM
IC50 (human Nav1.5 [3]): 3 µM

CC(O)(CS(N)(=O)=O)c1cccc(-c2ccn(Cc3cc(OC(F)(F)F)ccc3F)n2)n1 (single isomer, unassigned) [Rac-37 + 38, (R or S)-2-(6-(1-(2-fluoro-5-(trifluoromethoxy)benzyl)-1H-pyrazol-3-yl)pyridin-2-yl)-2-hydroxypropane-1-sulfonamide]
IC50 (human Nav1.5 [1]): 2.3 µM
IC50 (human Nav1.5 [3]): > 30 µM

CC(O)(CS(N)(=O)=O)c1cccc(-c2cn(Cc3cc(OC(F)(F)F)ccc3F)nn2)n1 (single isomer, unassigned) [Rac-59 + 60, (R or S)-2-(6-(1-(2-fluoro-5-(trifluoromethoxy)benzyl)-1H-1,2,3-triazol-4-yl)pyridin-2-yl)-2-hydroxypropane-1-sulfonamide]
IC50 (human Nav1.5 [1]): 5.2 µM
IC50 (human Nav1.5 [3]): 15 µM

C[C@@](O)(CS(N)(=O)=O)c1cccc(-c2nnn(Cc3cc(OC(F)(F)F)ccc3F)n2)n1 [Example 2, (S)-2-(6-(2-(2-fluoro-5-(trifluoromethoxy)benzyl)-2H-tetrazol-5-yl)pyridin-2-yl)-2-hydroxypropane-1-sulfonamide]
IC50 (human Nav1.5 [1]): 4.7 µM
IC50 (human Nav1.5 [3]): > 30 µM

From US20250034108A1, “SODIUM CHANNEL BLOCKERS” (NOVARTIS AG, priority 2023, published 2025)
